Here are results for seven molecules from publication PMC9575579 (European Journal of Medicinal Chemistry, 2022).

Marks after values point to notes of the source that are not given here.

As usually defined, the IC50 is the concentration that gives 50% inhibition. As usually defined, the inhibition is the share of the control response that was lost under treatment. By EC50 is commonly meant the concentration giving half of the maximal effect. A lower EC50 goes with a more potent agent.

For one data set, the system named is Vero E6-GFP cells. The following applies: African green monkey, 2 µM.
The next data set deals with SARS-CoV-2. In words: microbe, parasite or virus in culture. As to conditions: for EC50: Severe acute respiratory syndrome coronavirus 2, Vero, 72 h.
The target of the next data set is SARS-CoV-2 M^pro (Severe acute respiratory syndrome coronavirus 2, UniProt P0DTD1). In words: biochemical. In kind it is biochemical. The following applies: for IC50: M^pro SARS-COV-2 IC50.
The next data set has as its target MERS-CoV M^pro (Middle East respiratory syndrome-related coronavirus, UniProt K9N7C7). Kind of data set: biochemical. The following applies: for inhibition at 30 µM: read-out: % of inhibition of the M^pro at 30 μM (MERS).

Chain of MERS-CoV M^pro (K9N7C7 3248-3553 limits assumed): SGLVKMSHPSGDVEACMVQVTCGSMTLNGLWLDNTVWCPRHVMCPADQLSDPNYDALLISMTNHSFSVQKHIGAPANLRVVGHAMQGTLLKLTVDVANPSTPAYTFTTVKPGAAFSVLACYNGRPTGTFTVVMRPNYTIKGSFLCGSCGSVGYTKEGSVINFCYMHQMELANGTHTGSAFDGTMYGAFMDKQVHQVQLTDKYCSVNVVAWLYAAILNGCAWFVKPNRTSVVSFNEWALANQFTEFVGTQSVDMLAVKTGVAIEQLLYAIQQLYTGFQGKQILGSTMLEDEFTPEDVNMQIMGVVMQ

Turning to `O=C(NCc1ccccc1)C(=O)[C@H](C[C@@H]1CCNC1=O)NC(=O)[C@@H]1CCCN1C(=O)COc1ccc(Cl)cc1Cl` [9d, (S)–N-((S)-4-(benzylamino)-3,4-dioxo-1-((S)-2-oxopyrrolidin-3-yl)butan-2-yl)-1-(2-(2,4-dichlorophenoxy)acetyl)pyrrolidine-2-carboxamide], the “Residual cell viability at the highest concentration tested” value (“Residual cell viability” for short) in the data set with Vero E6-GFP cells is given as >100 (100%) ^e.

With `O=C(NCCc1ccccc1)C(=O)[C@H](C[C@@H]1CCNC1=O)NC(=O)[C@@H]1CCCN1C(=O)OCc1ccccc1` [9a, (S)-benzyl2-((S)-3,4-dioxo-1-((S)-2-oxopyrrolidin-3-yl)-4-(phenethylamino)butan-2ylcarbamoyl)pyrrolidine-1-carboxylate], the “EC50 + CP100356 (2 μM)” value with SARS-CoV-2 is on record as “did not change”. Further, the “Residual cell viability” value in the data set on Vero E6-GFP cells is >100 (100%) ^e.

Take `O=C(NCCc1ccccc1F)C(=O)[C@H](C[C@@H]1CCNC1=O)NC(=O)[C@@H]1CCCN1C(=O)OCc1ccccc1` [9b, (S)-benzyl2-((S)-4-(2-fluorophenethylamino)-3,4-dioxo-1-((S)-2-oxopyrrolidin-3-yl)butan-2-ylcarbamoyl)pyrrolidine-1-carboxylate]: at SARS-CoV-2 M^pro, the “M^pro SARS-COV-2 IC50” value is “submicromolar range”.

Regarding `O=C(NCCc1ccccc1)C(=O)[C@H](C[C@@H]1CCNC1=O)NC(=O)[C@@H]1CCCN1C(=O)COc1ccc(Cl)cc1Cl` [9e, (S)-1-(2-(2,4-dichlorophenoxy)acetyl)-N-((S)-3,4-dioxo-1-((S)-2-oxopyrrolidin-3-yl)-4-(phenethylamino)butan-2-yl)pyrrolidine-2-carboxamide], the “Residual cell viability” value in the data set with Vero E6-GFP cells is >100 (100%) ^e.

Turning to `COc1ccccc1CCNC(=O)C(=O)[C@H](C[C@@H]1CCNC1=O)NC(=O)[C@@H]1CCCN1C(=O)OCc1ccccc1` [9c, (S)-benzyl2-((S)-4-(2-methoxyphenethylamino)-3,4-dioxo-1-((S)-2-oxopyrrolidin-3-yl)butan-2-ylcarbamoyl)pyrrolidine-1-carboxylate], at SARS-CoV-2 M^pro, the “M^pro SARS-COV-2 IC50” value is reported as “submicromolar range”.

Regarding `O=C(NCc1ccccc1C(F)(F)F)C(=O)[C@H](C[C@@H]1CCNC1=O)NC(=O)[C@@H]1CCCN1C(=O)COc1ccc(Cl)cc1Cl` [9h, (S)-1-(2-(2,4-dichlorophenoxy)acetyl)-N-((S)-3,4-dioxo-1-((S)-2-oxopyrrolidin-3-yl)-4-(2-(trifluoromethyl)benzylamino)butan-2-yl)pyrrolidine-2-carboxamide], the IC50 against SARS-CoV-2 M^pro and against MERS-CoV M^pro was above 30 µM each time. Besides, the inhibition at 30 µM is 57% at SARS-CoV-2 M^pro (read-out: % of inhibition of the M^pro at 30 μM (SARS-CoV-2)) and 73% on MERS-CoV M^pro. Moreover, in the data set on SARS-CoV-2, the EC50 was above 100 µM.

As to `COc1ccc(CNC(=O)C(=O)[C@H](C[C@@H]2CCNC2=O)NC(=O)[C@@H]2CCCN2C(=O)COc2ccc(Cl)cc2Cl)c(OC)c1` [9f, (S)-1-(2-(2,4-dichlorophenoxy)acetyl)-N-((S)-4-(2,4-dimethoxybenzylamino)-3,4-dioxo-1-((S)-2-oxopyrrolidin-3-yl)butan-2-yl)pyrrolidine-2-carboxamide], on SARS-CoV-2 M^pro, 1.93 ± 0.16 µM corresponded to half-maximal inhibition (IC50). The EC50 with SARS-CoV-2 is above 100 µM. On MERS-CoV M^pro, the IC50 is above 30 µM and the inhibition at 30 µM came to 59%.
